Values joined by “and” are separate entries in the source; they are usually repeats but may differ in a detail not shown here. Identical values can stand only once. Blank lines part the entries; values can stand above or below the compound they belong to.
Tests used:
[1] = target: T1, Bromodomain-containing protein 3 (Homo sapiens, UniProt Q15059); experiment: Binding affinity to 15N-labeled recombinant BRD3-ET domain (unknown origin) expressed in Escherichia coli Rosetta (DE3) pLysS assessed as dissociation constant by […] HSQC NMR analysis
Target sequence in this assay (Q15059 whole entry, the tested form may be a part): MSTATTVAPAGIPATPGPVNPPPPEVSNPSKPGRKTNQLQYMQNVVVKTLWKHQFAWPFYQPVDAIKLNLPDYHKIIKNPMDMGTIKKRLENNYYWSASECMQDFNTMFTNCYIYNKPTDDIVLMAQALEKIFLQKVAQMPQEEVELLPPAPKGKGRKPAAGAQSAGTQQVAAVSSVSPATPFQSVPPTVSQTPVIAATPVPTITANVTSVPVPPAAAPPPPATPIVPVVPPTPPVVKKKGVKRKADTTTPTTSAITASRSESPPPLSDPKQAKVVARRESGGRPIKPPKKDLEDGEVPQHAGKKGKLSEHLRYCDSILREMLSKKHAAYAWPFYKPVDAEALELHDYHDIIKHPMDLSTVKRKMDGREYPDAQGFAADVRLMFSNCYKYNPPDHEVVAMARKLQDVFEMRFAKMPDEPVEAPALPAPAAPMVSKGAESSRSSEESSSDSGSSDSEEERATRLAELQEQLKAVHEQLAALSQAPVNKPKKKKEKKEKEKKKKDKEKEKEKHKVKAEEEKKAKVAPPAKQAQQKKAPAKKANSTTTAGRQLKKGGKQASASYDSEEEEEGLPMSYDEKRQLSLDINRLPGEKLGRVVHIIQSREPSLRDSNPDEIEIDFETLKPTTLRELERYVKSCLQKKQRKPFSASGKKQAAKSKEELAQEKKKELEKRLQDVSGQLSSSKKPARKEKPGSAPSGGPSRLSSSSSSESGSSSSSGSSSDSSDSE

[2] = target: T1, Bromodomain-containing protein 3; experiment: Binding affinity to biotinylated BRD3-ET domain (unknown origin) expressed in Escherichia coli Rosetta (DE3) pLysS assessed as dissociation constant at 4 degreeC by SPR analysis
Target sequence in this assay (Q15059 whole entry, the tested form may be a part): as above

[3] = target: T1, Bromodomain-containing protein 3; experiment: Binding affinity to recombinant BRD3-ET domain (unknown origin) expressed in Escherichia coli Rosetta (DE3) pLysS assessed as dissociation constant by 1H- NMR analysis
Target sequence in this assay (Q15059 whole entry, the tested form may be a part): as above

[4] = target: T1, Bromodomain-containing protein 3; experiment: Binding affinity to recombinant BRD3-ET domain (unknown origin) expressed in Escherichia coli Rosetta (DE3) pLysS assessed as dissociation constant by 19F- NMR analysis
Target sequence in this assay (Q15059 whole entry, the tested form may be a part): as above

[5] = target: T1, Bromodomain-containing protein 3; experiment: Binding affinity to biotinylated BRD3-ET domain (unknown origin) expressed in Escherichia coli Rosetta (DE3) pLysS assessed as dissociation off-rate constant at 4 degreeC by SPR analysis
Target sequence in this assay (Q15059 2-726 limits assumed): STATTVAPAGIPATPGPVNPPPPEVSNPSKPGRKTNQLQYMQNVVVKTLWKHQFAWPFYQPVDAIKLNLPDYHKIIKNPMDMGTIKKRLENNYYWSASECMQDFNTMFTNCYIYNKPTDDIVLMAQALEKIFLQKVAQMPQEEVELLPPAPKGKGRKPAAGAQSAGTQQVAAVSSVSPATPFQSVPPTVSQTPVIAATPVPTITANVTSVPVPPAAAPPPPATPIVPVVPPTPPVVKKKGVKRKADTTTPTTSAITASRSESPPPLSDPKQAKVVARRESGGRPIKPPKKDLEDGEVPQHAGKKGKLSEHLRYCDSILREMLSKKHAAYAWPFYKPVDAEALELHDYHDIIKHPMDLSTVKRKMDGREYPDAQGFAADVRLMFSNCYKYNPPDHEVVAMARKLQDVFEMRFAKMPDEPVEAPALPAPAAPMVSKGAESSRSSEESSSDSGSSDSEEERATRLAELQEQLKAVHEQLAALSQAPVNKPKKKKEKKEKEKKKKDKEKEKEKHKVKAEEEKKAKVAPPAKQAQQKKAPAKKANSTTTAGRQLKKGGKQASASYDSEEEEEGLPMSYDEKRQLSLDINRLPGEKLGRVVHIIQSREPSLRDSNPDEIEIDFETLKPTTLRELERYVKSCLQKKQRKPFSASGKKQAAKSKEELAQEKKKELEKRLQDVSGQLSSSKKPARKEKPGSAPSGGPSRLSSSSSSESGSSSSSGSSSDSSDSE

Structure (SMILES): Fc1ccc2[nH]c3c(c2c1)CCCC3NCCC1CCCNC1 (stereo not given) [listing 1 of 3 here]
Kd [3]: 24 µM
Kd [4]: 18 µM

Structure (SMILES): Fc1ccc2[nH]c3c(c2c1)CCCC3NCCC1CCCNC1 (stereo not given) [listing 2 of 3 here]
Kd [2]: 7.8 µM

Structure (SMILES): O=C(NC1CCCc2c1[nH]c1ccc(F)cc21)[C@@H]1C=CCN1 (stereo not given in full) [listing 2 of 3 here]
Kd [2]: 47 µM

Structure (SMILES): CC(C)C[C@H](N)CC(=O)NC1CCCc2c1[nH]c1ccc(F)cc21 (stereo not given in full) [listing 3 of 3 here]
Kd [2]: 11 µM

Structure (SMILES): Fc1ccc2[nH]c3c(c2c1)CCCC3NCCC1CCCNC1 (stereo not given) [listing 3 of 3 here]
K [5]: 0.28 s⁻¹

Structure (SMILES): Fc1ccc2[nH]c3c(c2c1)CCCC3NCC1CCNCC1 (stereo not given) [listing 2 of 3 here]
Kd [3]: 61 µM
Kd [4]: 22 µM

Structure (SMILES): O=C(NC1CCCc2c1[nH]c1ccc(F)cc21)[C@@H]1C=CCN1 (stereo not given in full) [listing 3 of 3 here]
K [5]: 0.13 s⁻¹ and 0.22 s⁻¹

Structure (SMILES): CC(C)(C)OC(=O)N1CCC(CNC2CCCc3c2[nH]c2ccc(F)cc32)C1 (stereo not given)
Kd [1]: 30 µM
Kd [2]: 93 µM

Next, values leading:

Kd [1]: 230 µM
Kd [2]: 380 µM
Structure (SMILES): OC1CCCc2c1[nH]c1ccccc21 (stereo not given)

Kd [3]: 54 µM
Kd [2]: 31 µM
Structure (SMILES): O=C(NC1CCCc2c1[nH]c1ccc(F)cc21)C1CCNC1 (stereo not given)

Kd [2]: 17 µM
Structure (SMILES): Fc1ccc2[nH]c3c(c2c1)CCCC3NCC1CCNCC1 (stereo not given) [listing 1 of 3 here]

Kd [1]: 64 µM
Structure (SMILES): O=C(NC1CCCc2c1[nH]c1ccc(F)cc21)[C@@H]1C=CCN1 (stereo not given in full) [listing 1 of 3 here]

K [5]: 0.22 s⁻¹ and 0.33 s⁻¹
Structure (SMILES): Fc1ccc2[nH]c3c(c2c1)CCCC3NCC1CCNC1 (stereo not given) [listing 1 of 3 here]

Kd [3]: 33 µM
Kd [2]: 25 µM
Structure (SMILES): O=C(CC1CCCNC1)NC1CCCc2c1[nH]c1ccc(F)cc21 (stereo not given)

Kd [2]: 11 µM
Structure (SMILES): Fc1ccc2[nH]c3c(c2c1)CCCC3NCC1CCNC1 (stereo not given) [listing 2 of 3 here]

K [5]: 0.26 s⁻¹ and 0.27 s⁻¹
Structure (SMILES): CC(C)C[C@H](N)CC(=O)NC1CCCc2c1[nH]c1ccc(F)cc21 (stereo not given in full) [listing 1 of 3 here]

Kd [3]: 39 µM
Structure (SMILES): CC(C)C[C@H](N)CC(=O)NC1CCCc2c1[nH]c1ccc(F)cc21 (stereo not given in full) [listing 2 of 3 here]

Kd [3]: 93 µM
Kd [4]: 68 µM
Structure (SMILES): Fc1ccc2[nH]c3c(c2c1)CCCC3NCC1CCNC1 (stereo not given) [listing 3 of 3 here]

Kd [1]: 31 µM
Kd [2]: 86 µM
Structure (SMILES): CC(C)(C)OC(=O)N1CCC(CNC2CCCc3c2[nH]c2ccc(F)cc32)CC1 (stereo not given)

Kd [1]: 150 µM
Kd [2]: 260 µM
Structure (SMILES): CC(=O)NC1CCCc2c1[nH]c1ccc(F)cc21 (stereo not given)

K [5]: 0.3 s⁻¹ and 0.49 s⁻¹
Structure (SMILES): Fc1ccc2[nH]c3c(c2c1)CCCC3NCC1CCNCC1 (stereo not given) [listing 3 of 3 here]

From ChEMBL document CHEMBL5338749, “Rapid Elaboration of Fragments into Leads Applied to Bromodomain-3 Extra-Terminal Domain” (J Med Chem, 2023)
